# Legend:
# GS = molecular target: T1, GS (Catharanthus roseus, UniProt W8JWW7); assay: X-ray crystal structure of complex, […] Å; type: binding; details: active site; catalytic and structural zinc bound
# T1 construct: construct details only in supplement
# CrDPAS = molecular target: T2, CrDPAS (Catharanthus roseus, UniProt A0A1B1FHP3); assay: enzymatic turnover, products by MS and NMR with deuterated cofactor; type: biochemical; details: NADPH or 4-pro-R-NADPD; 1,4-iminium reduction
# T2 construct: gene DPAS; construct details only in supplement; text prints PDB 8B26 for both CrDPAS and apo TiDPAS2
# T2 sequence (A0A1B1FHP3 1-365): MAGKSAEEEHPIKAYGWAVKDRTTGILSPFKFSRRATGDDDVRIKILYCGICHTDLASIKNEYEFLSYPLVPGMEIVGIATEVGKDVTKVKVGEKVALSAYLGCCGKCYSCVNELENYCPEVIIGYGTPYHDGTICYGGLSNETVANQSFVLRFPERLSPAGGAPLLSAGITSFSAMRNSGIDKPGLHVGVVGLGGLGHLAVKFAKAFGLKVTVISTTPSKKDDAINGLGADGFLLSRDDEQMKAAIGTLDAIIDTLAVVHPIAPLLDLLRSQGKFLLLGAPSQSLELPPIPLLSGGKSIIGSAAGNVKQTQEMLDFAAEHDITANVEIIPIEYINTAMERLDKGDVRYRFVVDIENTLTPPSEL
# T1 sequence (W8JWW7 2-364): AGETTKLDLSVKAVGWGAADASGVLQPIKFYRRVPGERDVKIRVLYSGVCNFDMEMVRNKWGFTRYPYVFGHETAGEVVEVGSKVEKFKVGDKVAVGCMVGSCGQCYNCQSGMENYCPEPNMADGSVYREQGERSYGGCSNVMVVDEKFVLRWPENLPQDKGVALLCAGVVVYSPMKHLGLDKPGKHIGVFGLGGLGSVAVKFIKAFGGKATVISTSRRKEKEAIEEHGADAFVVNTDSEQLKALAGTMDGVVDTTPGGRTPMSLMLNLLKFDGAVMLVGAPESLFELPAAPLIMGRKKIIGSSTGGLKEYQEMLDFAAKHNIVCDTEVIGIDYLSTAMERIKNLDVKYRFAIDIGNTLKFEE
Structure (SMILES),"X-ray crystal structure of complex, 2.00 Å (GS)","enzymatic turnover, products by MS and NMR with deuterated cofactor (CrDPAS)"
NC(=O)c1ccc[n+]([C@@H]2O[C@H](COP(=O)(O)OP(=O)(O)OC[C@H]3O[C@@H](n4cnc5c(N)ncnc54)[C@H](OP(=O)(O)O)[C@@H]3O)[C@@H](O)[C@H]2O)c1 [NADP+],Active site of GS co‐crystallised with NADP^+,–
C/C=C1/C=[N+]2CCc3c([nH]c4ccccc34)[C@@](COC(C)=O)(C(=O)OC)[C@H]1CC2 [precondylocarpine acetate],–,we observed product formation when only DPAS and NADPH is incubated with precondylocarpine acetate

# From paper PMC9828224, “Expansion of the Catalytic Repertoire of Alcohol Dehydrogenases in Plant Metabolism” (Angewandte Chemie (International Ed. in English), 2022)
